Usually Ki stands for the dissociation constant of the complex between target and ligand, obtained from inhibition or displacement.

For test [1], the target named is CDK2/Cyclin E1 full length (Homo sapiens (Human), UniProt P24941). Nature of the test: CDK2/Cyclin E1 full length mobility shift assay. In kind it is biochemical.
The target of a further test is GSK3β (H350L) (Homo sapiens (Human), UniProt P49841). To be noted: read-out: GSK3β Ki.
Chain of GSK3β (H350L) (P49841 whole entry, stated change not applied): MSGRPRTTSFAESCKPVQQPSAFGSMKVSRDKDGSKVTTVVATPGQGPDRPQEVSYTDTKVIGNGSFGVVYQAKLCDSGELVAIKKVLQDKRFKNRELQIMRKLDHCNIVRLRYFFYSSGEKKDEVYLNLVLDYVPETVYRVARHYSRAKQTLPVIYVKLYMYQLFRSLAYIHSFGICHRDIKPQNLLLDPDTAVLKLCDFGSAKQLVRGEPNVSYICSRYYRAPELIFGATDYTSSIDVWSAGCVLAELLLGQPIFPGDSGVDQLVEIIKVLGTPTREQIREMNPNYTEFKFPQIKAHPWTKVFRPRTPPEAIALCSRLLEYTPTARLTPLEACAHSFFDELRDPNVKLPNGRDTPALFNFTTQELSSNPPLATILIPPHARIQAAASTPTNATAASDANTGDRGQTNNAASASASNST

Description for GSK3β (H350L): The assay was initiated with the addition of ATP, following 15 minutes pre-incubation of enzyme and inhibitor at room temperature in the reaction mixture. The reaction was stopped after 30 minutes at room temperature by the addition of 50 μL of 80 mM EDTA.

As for `CC[C@H](C)NC(=O)O[C@@H]1CC[C@H](c2cc(NC(=O)Cc3cnn(C)n3)n[nH]2)C1` [Example 330, (1R,3S)-3-(3-{[(2-methyl-2H-1,2,3-triazol-4-yl)acetyl]amino}-1H-pyrazol-5-yl)cyclopentyl (2S)-butan-2-ylcarbamate], the Ki in test [1] worked out at 0.55 nM; on GSK3β (H350L), 86 nM.

For `CC[C@H](C)NC(=O)O[C@@H]1CC[C@H](c2cc(NC(=O)Cc3cc(C)on3)n[nH]2)C1` [Example 332, (1R,3S)-3-(3-{[(5-methyl-1,2-oxazol-3-yl)acetyl]amino}-1H-pyrazol-5-yl)cyclopentyl (2S)-butan-2-ylcarbamate], the Ki in test [1] is 1.05 nM; at GSK3β (H350L), 61.3 nM.

As to `CC[C@H](C)NC(=O)O[C@@H]1CC[C@H](c2cc(NC(=O)Cc3ncc(C)o3)n[nH]2)C1` [Example 333, (1R,3S)-3-(3-{[(5-methyl-1,3-oxazol-2-yl)acetyl]amino}-1H-pyrazol-5-yl)cyclopentyl (2S)-butan-2-ylcarbamate], the Ki in test [1] came to 0.41 nM; on GSK3β (H350L), 63.2 nM.

For the molecule `CC[C@H](C)NC(=O)O[C@@H]1CC[C@H](c2cc(NC(=O)Cc3ccnc(C)c3)n[nH]2)C1` [Example 335, (1R,3S)-3-(3-{[(2-methylpyridin-4-yl)acetyl]amino}-1H-pyrazol-5-yl)cyclopentyl (2S)-butan-2-ylcarbamate], the Ki turned out to be 0.41 nM in test [1] and 23.9 nM at GSK3β (H350L).

As to `CC[C@H](C)NC(=O)O[C@@H]1CC[C@H](c2cc(NC(=O)Cc3cncc(C)n3)n[nH]2)C1` [Example 336, (1R,3S)-3-(3-{[(6-methylpyrazin-2-yl)acetyl]amino}-1H-pyrazol-5-yl)cyclopentyl (2S)-butan-2-ylcarbamate], the Ki in test [1] was found to be 0.39 nM; at GSK3β (H350L), 53.5 nM.

Turning to `CC[C@H](C)NC(=O)O[C@@H]1CC[C@H](c2cc(NC(=O)Cc3cnn(C)c3C)n[nH]2)C1` [Example 337, (1R,3S)-3-(3-{[(1,5-dimethyl-1H-pyrazol-4-yl)acetyl]amino}-1H-pyrazol-5-yl)cyclopentyl (2S)-butan-2-ylcarbamate], the Ki is 0.58 nM in test [1] and 94.9 nM at GSK3β (H350L).

In the case of `CC[C@H](C)NC(=O)O[C@@H]1CC[C@H](c2cc(NC(=O)Cc3cc(C)nn3C)n[nH]2)C1` [Example 338, (1R,3S)-3-(3-{[(1,3-dimethyl-1H-pyrazol-5-yl)acetyl]amino}-1H-pyrazol-5-yl)cyclopentyl (2S)-butan-2-ylcarbamate], the results for the Ki (in test [1]; on GSK3β (H350L)) were 1.58 nM and 94.4 nM, respectively.

`CC[C@H](C)NC(=O)O[C@@H]1CC[C@H](c2cc(NC(=O)Cc3scnc3C)n[nH]2)C1` [Example 342, (1R,3S)-3-(3-{[(4-methyl-1,3-thiazol-5-yl)acetyl]amino}-1H-pyrazol-5-yl)cyclopentyl (2S)-butan-2-ylcarbamate]: the inhibition constant (Ki) was 0.74 nM in test [1] and 40 nM at GSK3β (H350L).

On to `CC[C@H](C)NC(=O)O[C@@H]1CC[C@H](c2cc(NC(=O)Cc3nc(C)cs3)n[nH]2)C1` [Example 343, (1R,3S)-3-(3-{[(4-methyl-1,3-thiazol-2-yl)acetyl]amino}-1H-pyrazol-5-yl)cyclopentyl (2S)-butan-2-ylcarbamate], for which the Ki in test [1] is 0.77 nM; at GSK3β (H350L) it was 26.1 nM.

On to `CC[C@H](C)NC(=O)O[C@@H]1CC[C@H](c2cc(NC(=O)Cc3ccc(OC)nc3)n[nH]2)C1` [Example 346, (1R,3S)-3-(3-{[(6-methoxypyridin-3-yl)acetyl]amino}-1H-pyrazol-5-yl)cyclopentyl (2S)-butan-2-ylcarbamate], for which the Ki stood at 0.26 nM in test [1] and 10.7 nM on GSK3β (H350L).

`CC[C@H](C)NC(=O)O[C@@H]1CC[C@H](c2cc(NC(=O)Cc3cncc(OC)n3)n[nH]2)C1` [Example 348, (1R,3S)-3-(3-{[(6-methoxypyrazin-2-yl)acetyl]amino}-1H-pyrazol-5-yl)cyclopentyl (2S)-butan-2-ylcarbamate]: the inhibitory constant (Ki) in test [1] turned out to be 0.59 nM; at GSK3β (H350L), 54.1 nM.

Values taken from patent US11014911B2, “CDK2 inhibitors” (Pfizer Inc., priority 2019, dated 2021).
